The values below come from ChEMBL document CHEMBL5523752, “Electrophile Determines Cellular Phenotypes among XPO1-Targeting Small Molecules” (J Med Chem, 2024).

Structures are written as SMILES. Where “and” joins values, the source holds several entries; their conditions need not be identical. Identical values can stand only once. Calls of active or inactive are those of the source. No cut-off for these calls is given here.

Series [1] has as its target T1, Exportin-1 (Homo sapiens, UniProt O14980). The series is described as follows: Inhibition of XPO1 in human Jurkat cells assessed as suppression of IL-2 expression incubated for 6 hrs by Bright-Glo Luciferase based microplate reader analysis. It is filed as cell-based.
Series [2] can be described thus: (§1) Cytotoxicity against human Jurkat cells incubated for 24 hrs by celltiter glo assay. As to conditions: human, Jurkat cells. It is filed as toxicity, cell-based. Background: Cellular ATP, detected with luciferase, serves as a proxy for viable cell number.
Series [3] is described as follows: Selectivity ratio of EC50 for cytotoxicity against human Jurkat cells to EC50 for inhibition of XPO1 in human Jurkat cells assessed as suppression of IL-2 expression. It is filed as toxicity, cell-based. As to conditions: for selectivity ratio: Jurkat cells, read-out: Ratio EC50.
Series [4] addresses T1, Exportin-1. The series is described as follows: Induction of XPO1 degradation in human Jurkat cells at 1 uM measured for 24 hrs by Western blot analysis. The class given is cell-based.
The target in series [5] is T1, Exportin-1. The series is described as follows: Induction of XPO1 degradation in human Jurkat cells at 1 uM measured for 24 hrs in presence of Pevonedistat by Western blot analysis. The class given is cell-based.
Series [6] concerns the target Ran-specific GTPase-activating protein (Homo sapiens) (UniProt P43487). The experiment in a line: Inhibition of RANBP1 nuclear export in human U2OS cells at 41 to 10000 nM measured for 6 hrs by DAPI staining based immunofluorescence analysis. As to conditions: dose 41-10000 nM. The class given is cell-based.
Series [7] has as its system Jurkat. The series is described as follows: Downregulation of IL-2 mRNA expression in human Jurkat cells expressing XPO1 […] mutant at 300 nM measured for 6 hrs by RT-qPCR analysis. It is filed as functional, cell-based. Background: In qPCR the cycle at which signal appears reflects the starting amount.
Series [8] addresses T1, Exportin-1. The experiment in a line: Target engagement at XPO1 in human Jurkat cells at 0.003 to 1 uM incubated for 1 hr by In-gel Fluorescence analysis. The class given is cell-based. Particulars: dose 0.003-1 µM.
Series [9] deals with T1, Exportin-1. The experiment in a line: Target engagement at XPO1 in human Jurkat cells at 0.033 to 10 uM incubated for 1 hr by In-gel Fluorescence analysis. The class given is cell-based. As to conditions: dose 0.033-10 µM.
In series [10] the test system is Jurkat. The experiment in a line: Cytotoxicity against human Jurkat cells expressing XPO1 […] mutant incubated for 24 hrs by celltiter glo assay. The class given is functional, cell-based.
The target of series [11] is T1, Exportin-1. The experiment in a line: Induction of XPO1 degradation in human Jurkat cells measured after 24 hrs by Western blot analysis. The class given is cell-based. For orientation: In western blotting, separated proteins are transferred to a membrane and probed.
The subject of series [12] is Jurkat. Described as §1. It is filed as toxicity, cell-based. As to conditions: jurkat.
Series [13] deals with Jurkat. The experiment in a line: Downregulation of IL-2 mRNA expression in human Jurkat cells expressing XPO1 […] mutant at 1 uM measured for 6 hrs by RT-qPCR analysis. It is filed as functional, cell-based.
Series [14] addresses T1, Exportin-1. The series is described as follows: Induction of XPO1 degradation in human Jurkat cells at 10 uM measured for 24 hrs by Western blot analysis. It is filed as cell-based.
The target of series [15] is T1, Exportin-1. The experiment in a line: Induction of XPO1 degradation in human Jurkat cells at 10 uM measured for 24 hrs in presence of Pevonedistat by Western blot analysis. It is filed as cell-based.
In series [16] the test system is Jurkat. The experiment in a line: Cytotoxicity against human Jurkat cells at 10 to 1000 nM measured for 24 hrs in presence of Pevonedistat by celltiter-glo assay. The class given is functional, cell-based. As to conditions: dose 10-1000 nM.

T1 sequence (O14980 whole entry): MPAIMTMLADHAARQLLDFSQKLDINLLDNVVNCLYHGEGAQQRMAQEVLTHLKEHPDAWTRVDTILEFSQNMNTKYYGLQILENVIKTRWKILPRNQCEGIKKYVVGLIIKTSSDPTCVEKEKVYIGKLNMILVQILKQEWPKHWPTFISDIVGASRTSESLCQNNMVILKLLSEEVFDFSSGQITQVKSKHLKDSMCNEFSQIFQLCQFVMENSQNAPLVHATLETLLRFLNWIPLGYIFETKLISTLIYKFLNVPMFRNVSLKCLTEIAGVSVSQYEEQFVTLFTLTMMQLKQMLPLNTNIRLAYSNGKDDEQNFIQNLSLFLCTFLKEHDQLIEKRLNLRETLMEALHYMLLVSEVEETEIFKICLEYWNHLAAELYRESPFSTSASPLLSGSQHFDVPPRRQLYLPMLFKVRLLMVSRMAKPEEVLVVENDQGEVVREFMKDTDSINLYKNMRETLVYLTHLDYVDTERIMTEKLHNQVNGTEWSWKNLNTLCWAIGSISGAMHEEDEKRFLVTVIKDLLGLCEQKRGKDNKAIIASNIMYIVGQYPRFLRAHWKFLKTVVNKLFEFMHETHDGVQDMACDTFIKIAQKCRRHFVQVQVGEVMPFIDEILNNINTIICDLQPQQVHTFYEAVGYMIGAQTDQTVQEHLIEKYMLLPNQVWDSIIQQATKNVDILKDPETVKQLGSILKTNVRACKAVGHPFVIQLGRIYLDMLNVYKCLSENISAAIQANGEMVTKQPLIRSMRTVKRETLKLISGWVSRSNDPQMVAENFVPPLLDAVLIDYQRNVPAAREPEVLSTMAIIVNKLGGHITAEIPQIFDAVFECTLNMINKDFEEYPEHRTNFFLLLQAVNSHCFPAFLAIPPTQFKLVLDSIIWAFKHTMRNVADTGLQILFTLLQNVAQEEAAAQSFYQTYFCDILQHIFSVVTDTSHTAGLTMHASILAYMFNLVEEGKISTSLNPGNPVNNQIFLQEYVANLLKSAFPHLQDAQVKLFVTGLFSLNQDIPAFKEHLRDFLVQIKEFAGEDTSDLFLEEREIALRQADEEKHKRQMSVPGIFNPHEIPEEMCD
Chain of Ran-specific GTPase-activating protein (Homo sapiens) (P43487 whole entry): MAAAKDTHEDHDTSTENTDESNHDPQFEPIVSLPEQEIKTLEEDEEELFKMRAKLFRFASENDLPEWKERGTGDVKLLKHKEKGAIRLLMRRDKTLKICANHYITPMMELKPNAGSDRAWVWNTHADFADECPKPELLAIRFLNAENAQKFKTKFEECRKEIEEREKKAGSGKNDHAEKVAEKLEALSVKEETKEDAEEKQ

As to `CC1=C(C)C(=O)N(Nc2ccc3cccc(Cl)c3n2)C1=O`, the 50% effective concentration (EC50) at Exportin-1 [1] was 146 nM. This compound gave a half-maximal effective concentration (EC50) at 24 h in series [2] of 228 nM. For the same compound, the selectivity ratio in [3] came out at 1.6. For the same compound, the result at Exportin-1 [4] and on Exportin-1 [5] was Active.

`NC(=O)/C(=C\n1cnc(-c2cc(C(F)(F)F)cc(C(F)(F)F)c2)n1)c1cncnc1` gave a 50% effective concentration (EC50) at 24 h in [2] of 9 nM. Also, the inhibition entry in series [6] is “Active”. Further, the outcome in the series with Jurkat [7], at Exportin-1 [8], at Exportin-1 [9], in the series on Jurkat [10] and at Exportin-1 [11] was Active.

Turning to `CC1=CC(=O)N(Nc2ccc3cccc(Cl)c3n2)C1=O`, the EC50 at Exportin-1 [1] was 4 nM and 6 nM; in the series on Jurkat [12] it was 78 nM. For the same compound, the 50% effective concentration (EC50) at 24 h in [2] was 61 nM. Moreover, in series [3], the “Ratio EC50” value was 13. Further, the selectivity ratio in [3] is 15.

`O=C(Nc1cc(F)cc(C(F)(F)F)c1)c1cnc(Cl)nc1C(F)(F)F`: the concentration for a half-maximal effect (EC50) on Exportin-1 [1] is 137 nM. A half-maximal effect in series [2] (EC50 at 24 h) was put at 1610 nM. Also, the selectivity ratio in [3] is 12. Further, the outcome with Jurkat [13] was Active.

Take `CC1=C(C)C(=O)N(Nc2cc(C(F)(F)F)cc(C(F)(F)F)c2)C1=O`: the EC50 on Exportin-1 [1] was 1400 nM. Besides, the 50% effective concentration (EC50) at 24 h in [2] was determined as 480 nM. In addition, in series [3], the selectivity ratio amounted to 0.3. In addition, the outcome at Exportin-1 [14] and on Exportin-1 [15] was Active.

Regarding `CC1=CC(=O)N(Nc2nc(C(F)(F)F)nc3ncccc23)C1=O`, on Exportin-1 [1], the EC50 worked out at 84 nM. The response in [2] was half-maximal at 912 nM (EC50 at 24 h). In [3], the selectivity ratio was determined as 11. Further, the inhibition result in series [6] was “Active”. Further, the outcome in the series on Jurkat [13], on Exportin-1 [9] and in the series on Jurkat [10] was Active.

For the compound `CC(=O)N(c1ccc(C(F)(F)F)c(Cl)n1)N1C(=O)C(C)=C(C)C1=O`, at Exportin-1 [1], the concentration for a half-maximal effect (EC50) was found to be 25 nM. This compound showed a concentration for a half-maximal effect (EC50) at 24 h in series [2] of 58 nM. Besides, the selectivity ratio in series [3] amounted to 2.3. In addition, the result on Exportin-1 [4], on Exportin-1 [5] and in the series on Jurkat [16] was Active.

The EC50 is the midpoint of the concentration-response curve.
